This note sets out measurements from US20250129068A1 (IP2IPO INNOVATIONS LIMITED, priority 2021, published 2025).

This assay deals with full-length human GCN2 enzyme (Homo sapiens (Human), UniProt Q9P2K8). In words: GCN2 enzyme inhibition, LanthaScreen TR-FRET Kinase Activity assay. Type of assay: biochemical. The settings on record: 10 μM ATP; mean of 1 to 3 replicate assays. The procedure:
The inhibitory activity of the Example compounds towards GCN2 enzyme was measured according to the description below, using a LanthaScreen TR-FRET (Time Resolved Fluorescence Resonance Energy Transfer) Kinase Activity assay distributed by ThermoFisher Scientific.
The full-length human GCN2 enzyme (UniProt accession number Q9P2K8) was used for all experiments (Carna Bioscience). The TR-FRET pair was composed of GFP-elF2a and LanthaScreen Terbium-labeled anti-pelF2a (pSer52) Antibody.
Each example compound was dissolved in DMSO (0.15 mM) and dispensed in a 384-well plate by a D300 dispenser (Tecan) to a final concentration range 3000-0.13 nM using the logarithmic dilution mode in 2 replicates. Full inhibition (3000 nM commercial reference inhibitor) and DMSO vehicle control wells were also included on the same plate. All volumes were normalized to the final DMSO concentration of 2% of the reaction volume. Next, 5 μL of H2O was added to each well of the plate.
The enzyme mixture was prepared to obtain the following concentrations: • GCN2—30 nM • unloaded tRNA—0.3 nM • HEPES (pH=7.0)—100 mM • MgCl2—20 mM; MnCl2—10 mM
The mixture was applied by adding 5 μL to each well of the plate. The enzyme and the tested compound were then incubated at room temperature for 20 min while shaking at 450 rpm.
The substrate mixture was prepared to obtain the following concentrations: • GFP-elF2α—240 nM • ATP-30 PM • HEPES (pH=7.0)—50 mM • MgCl2—10 mM • MnCl2—5 mM.
The mixture was applied by adding 5 μL to each well of the plate. Thus, the final concentrations of the 15 μL reaction mixture were as follows: • GCN2—10 nM • unloaded tRNA—0.1 nM • GFP-elF2α—80 nM • ATP-10 μM • HEPES (1 M, pH=7.0)—50 mM • MgCl2—10 mM • MnCl2—5 mM.
The reaction was allowed to proceed at room temperature for 30 min while shaking at 450 rpm.
The antibody mixture was prepared to obtain the following concentrations: • Na2EDTA·2H2O—40 mM, in TR-FRET Dilution Buffer (Life technologies) • Tb-anti-pelF2a antibodies—4 nM.
The mixture was applied by adding 15 μL to each well. The plate was then incubated at room temperature for 60 min while shaking at 450 rpm and then read using Tecan Spark reader using specific TR-FRET filters.
The analysis of the GFP/Tb fluorescence results was conducted with GraphPad Prism to determine IC50 for each of the example compounds using 4-parameter model: log (inhibitor) vs. response-variable slope. IC50 and Ki values were calculated in the usual way. The assay was carried out between 1 and 3 times. The results in the table below are the mean results from replicate assays for the compound in question, where applicable.
(In general: Time-resolved FRET reads energy transfer from a long-lived donor to a nearby acceptor.)

full-length human GCN2 enzyme, sequence (Q9P2K8 whole entry): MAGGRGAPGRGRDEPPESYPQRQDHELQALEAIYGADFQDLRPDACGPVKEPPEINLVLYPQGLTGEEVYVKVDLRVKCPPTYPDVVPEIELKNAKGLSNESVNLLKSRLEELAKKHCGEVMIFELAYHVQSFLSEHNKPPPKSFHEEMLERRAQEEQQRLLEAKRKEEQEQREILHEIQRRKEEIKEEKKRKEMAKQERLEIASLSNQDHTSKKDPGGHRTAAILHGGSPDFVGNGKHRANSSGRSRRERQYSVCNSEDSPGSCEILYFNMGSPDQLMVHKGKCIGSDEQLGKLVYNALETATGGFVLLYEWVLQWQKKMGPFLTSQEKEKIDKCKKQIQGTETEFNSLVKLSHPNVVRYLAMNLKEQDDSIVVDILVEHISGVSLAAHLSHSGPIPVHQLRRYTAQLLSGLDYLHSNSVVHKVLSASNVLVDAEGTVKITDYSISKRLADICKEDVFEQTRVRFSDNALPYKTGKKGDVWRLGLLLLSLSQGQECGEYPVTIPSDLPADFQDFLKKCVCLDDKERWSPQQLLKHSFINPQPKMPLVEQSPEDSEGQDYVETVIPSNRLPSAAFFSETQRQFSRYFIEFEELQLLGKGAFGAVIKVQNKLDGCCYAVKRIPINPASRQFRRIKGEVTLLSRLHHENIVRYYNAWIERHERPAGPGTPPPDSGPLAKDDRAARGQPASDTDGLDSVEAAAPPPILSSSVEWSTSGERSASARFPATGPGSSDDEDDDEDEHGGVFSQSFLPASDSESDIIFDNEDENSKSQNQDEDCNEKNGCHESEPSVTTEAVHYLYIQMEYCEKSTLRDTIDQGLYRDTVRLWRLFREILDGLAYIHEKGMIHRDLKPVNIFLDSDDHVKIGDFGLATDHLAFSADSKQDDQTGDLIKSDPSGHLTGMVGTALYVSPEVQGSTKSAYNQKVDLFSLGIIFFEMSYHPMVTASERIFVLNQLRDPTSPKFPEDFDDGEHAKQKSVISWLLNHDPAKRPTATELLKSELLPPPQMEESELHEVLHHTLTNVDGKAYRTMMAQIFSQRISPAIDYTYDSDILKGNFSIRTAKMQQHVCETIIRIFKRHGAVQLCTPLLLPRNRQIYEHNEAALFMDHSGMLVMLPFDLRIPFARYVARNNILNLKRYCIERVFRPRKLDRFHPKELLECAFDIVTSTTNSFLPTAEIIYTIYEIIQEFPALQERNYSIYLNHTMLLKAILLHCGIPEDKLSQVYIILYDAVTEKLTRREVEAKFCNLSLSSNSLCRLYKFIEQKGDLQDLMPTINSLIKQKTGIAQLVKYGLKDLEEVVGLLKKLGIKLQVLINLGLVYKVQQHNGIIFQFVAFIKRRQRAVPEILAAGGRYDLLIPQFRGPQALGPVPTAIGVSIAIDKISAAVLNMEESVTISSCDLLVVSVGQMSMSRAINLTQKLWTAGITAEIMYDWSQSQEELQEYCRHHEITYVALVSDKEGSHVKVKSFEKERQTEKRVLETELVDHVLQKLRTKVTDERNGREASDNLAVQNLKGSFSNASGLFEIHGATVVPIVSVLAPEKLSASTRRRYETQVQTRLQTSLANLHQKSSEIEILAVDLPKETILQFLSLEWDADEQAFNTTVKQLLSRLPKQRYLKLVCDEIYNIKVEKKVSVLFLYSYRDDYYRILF

In general, Ki refers to the equilibrium dissociation constant of an inhibitor or competing ligand from its target. A lower Ki goes with tighter binding. On to `Cc1ncc(F)cc1S(=O)(=O)Nc1nccc(C#Cc2cnc3[nH]ncc3c2)c1F` [Example 16, 5-Fluoro-N-[3-fluoro-4-(2-{1H-pyrazolo[3,4-b]pyridin-5-yl}ethynyl)pyridin-2-yl]-2-methylpyridine-3-sulfonamide], for which the affinity corresponds to a Ki of 4.19 nM.
As to `Cc1ccc(S(=O)(=O)Nc2nccc(C#Cc3cnc4[nH]ncc4c3)c2F)c(C)n1` [Example 14, N-[3-Fluoro-4-(2-{1H-pyrazolo[3,4-b]pyridin-5-yl}ethynyl)pyridin-2-yl]-2,6-dimethylpyridine-3-sulfonamide], the affinity corresponds to a Ki of 17.8 nM.
The value for `COc1ncc(C)cc1S(=O)(=O)Nc1nccc(C#Cc2cnc3[nH]ncc3c2)c1F` [Example 9, N-[3-Fluoro-4-(2-{1H-pyrazolo[3,4-b]pyridin-5-yl}ethynyl)pyridin-2-yl]-2-methoxy-5-methyl-pyridine-3-sulfonamide] was 6.6 nM.
`Cc1cnc(C)c(S(=O)(=O)Nc2nccc(C#Cc3cnc4[nH]ncc4c3)c2F)c1` [Example 11, N-[3-Fluoro-4-(2-{1H-pyrazolo[3,4-b]pyridin-5-yl}ethynyl)pyridin-2-yl]-2,5-dimethylpyridine-3-sulfonamide] returned a Ki of 8.17 nM.
The value for `COc1cccc(S(=O)(=O)Nc2nccc(C#Cc3cnc4[nH]ncc4c3)c2F)c1F` [Example 1, 2-Fluoro-N-[3-fluoro-4-(2-{1H-pyrazolo[3,4-b]pyridin-5-yl}ethynyl)pyridin-2-yl]-3-methoxybenzene-1-sulfonamide] was 172 nM; that for `O=S(=O)(Nc1nccc(C#Cc2cnc3[nH]ncc3c2)c1F)c1cncc(Cl)c1` [Example 7, 5-Chloro-N-[3-fluoro-4-(2-{1H-pyrazolo[3,4-b]pyridin-5-yl}ethynyl)pyridin-2-yl]pyridine-3-sulfonamide] was 127 nM; that for `COc1ncc(C(F)(F)F)cc1S(=O)(=O)Nc1nccc(C#Cc2cnc3[nH]ncc3c2)c1F` [Example 5, N-[3-Fluoro-4-(2-{1H-pyrazolo[3,4-b]pyridin-5-yl}ethynyl)pyridin-2-yl]-2-methoxy-5-(trifluoromethyl)pyridine-3-sulfonamide] was 5.78 nM.
In turn, `COc1ncccc1S(=O)(=O)Nc1nccc(C#Cc2cnc3[nH]ncc3c2)c1F` [Example 8, N-[3-Fluoro-4-(2-{1H-pyrazolo[3,4-b]pyridin-5-yl}ethynyl)pyridin-2-yl]-2-methoxypyridine-3-sulfonamide] gave a Ki of 59.9 nM.
On to `Cc1nc(C)c(S(=O)(=O)Nc2nccc(C#Cc3cnc4[nH]ncc4c3)c2F)s1` [Example 6, N-[3-Fluoro-4-(2-{1H-pyrazolo[3,4-b]pyridin-5-yl}ethynyl)pyridin-2-yl]-2,4-dimethyl-1,3-thiazole-5-sulfonamide], for which the Ki came out at 29.3 nM.
In the case of `O=S(=O)(Nc1nccc(C#Cc2cnc3[nH]ncc3c2)c1F)c1cccc2c1OCO2` [Example 10, N-[3-Fluoro-4-(2-{1H-pyrazolo[3,4-b]pyridin-5-yl}ethynyl)pyridin-2-yl]-2H-1,3-benzodioxole-4-sulfonamide], the Ki was found to be 209 nM.
To `COc1ncc(C#N)cc1S(=O)(=O)Nc1nccc(C#Cc2cnc3[nH]ncc3c2)c1F` [Example 12, 5-Cyano-N-[3-fluoro-4-(2-{1H-pyrazolo[3,4-b]pyridin-5-yl}ethynyl)pyridin-2-yl]-2-methoxypyridine-3-sulfonamide] belongs 7.76 nM; to `COc1cccc(S(=O)(=O)Nc2nccc(C#Cc3cnc4[nH]ncc4c3)c2F)c1` [Example 3], 128 nM.
In the case of `O=S(=O)(Nc1nccc(C#Cc2cnc3[nH]ncc3c2)c1F)c1cc(Cl)cnc1CCO` [Example 20, 5-chloro-N-[3-fluoro-4-(2-{1H-pyrazolo[3,4-b]pyridin-5-yl}ethynyl)pyridin-2-yl]-2-(2-hydroxyethyl)pyridine-3-sulfonamide], the affinity, expressed as Ki, was 67 nM.
In the case of `N#Cc1cccc(S(=O)(=O)Nc2nccc(C#Cc3cnc4[nH]ncc4c3)c2F)c1` [Example 2, 3-Cyano-N-[3-fluoro-4-(2-{1H-pyrazolo[3,4-b]pyridin-5-yl}ethynyl)pyridin-2-yl]benzene-1-sulfonamide], the Ki was found to be 107 nM. This Ki is about 1.6-fold higher than that of the compound before.
Consider `O=S(=O)(Nc1nccc(C#Cc2cnc3[nH]ncc3c2)c1F)c1ccc(Cl)cc1CO` [Example 19], for which the affinity, expressed as Ki, was 65 nM.
The value for `Cc1ncc(Cl)cc1S(=O)(=O)Nc1nccc(C#Cc2cnc3[nH]ncc3c2)c1F` [Example 4, 5-Chloro-N-[3-fluoro-4-(2-{1H-pyrazolo[3,4-b]pyridin-5-yl}ethynyl)pyridin-2-yl]-2-methylpyridine-3-sulfonamide] was 2.49 nM; that for `CCOc1ncc(Cl)cc1S(=O)(=O)Nc1nccc(C#Cc2cnc3[nH]ncc3c2)c1F` [Example 18, 5-Chloro-2-ethoxy-N-[3-fluoro-4-(2-{1H-pyrazolo[3,4-b]pyridin-5-yl}ethynyl)-pyridin-2-yl]pyridine-3-sulfonamide] was 8.83 nM.
